Broadly, the IC50 is the concentration at which inhibition is half-maximal. Low readings indicate greater potency, high ones weaker potency.

Our source for the IC50 values is patent publication EP0450097B1, “BENZOHETEROCYCLIC COMPOUNDS” (OTSUKA PHARMACEUTICAL CO., LTD., priority 1989, dated 1991).

The target in this assay is T1, V₂ receptor (Rattus norvegicus, UniProt Q00788).
T1 construct: Using rat kidney plasma membrane preparations; from tissue; host or cells: rat kidney plasma membranes
T1 sequence (Q00788 whole entry): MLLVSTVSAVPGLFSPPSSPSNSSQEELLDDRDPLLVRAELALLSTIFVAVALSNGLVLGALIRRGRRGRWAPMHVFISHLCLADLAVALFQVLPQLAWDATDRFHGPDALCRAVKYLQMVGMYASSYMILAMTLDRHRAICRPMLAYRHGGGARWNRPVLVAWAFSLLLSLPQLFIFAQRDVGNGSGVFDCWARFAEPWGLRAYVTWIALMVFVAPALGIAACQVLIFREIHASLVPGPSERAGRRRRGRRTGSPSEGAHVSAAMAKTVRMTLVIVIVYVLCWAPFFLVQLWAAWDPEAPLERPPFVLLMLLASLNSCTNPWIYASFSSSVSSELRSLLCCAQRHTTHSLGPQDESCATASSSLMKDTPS
The assay is described as follows: V₂ receptor binding assay ([³H]-Arg-vasopressin, rat kidney plasma membrane preparations). The conditions noted are these: 4°C for 3 hours. The procedure:
Using rat kidney plasma membrane preparations prepared according to O. Hechter's method [cf: J. Bio. […] After incubation, the mixture is filtered using the glass filter (GF/F) so as to separate the membrane preparation combined with vasopressin and then washed twice with the buffer (5 ml). This glass filter is taken out and mixed with liquid scintillation cocktail. The amount of [³H]-vasopressin combined with the membrane is measured by liquid scintillation counter and the rate of the inhibitory effect of the test compound is estimated according to the following equation. Rate of the inhibitory effect (%) = 100 -(C1 - B1)/(C0 - B1)X 100 [formula] C¹: The amount of [³H]-vasopressin combined with the membrane in the presence of the test compound (in prescribed amount). C⁰: The amount of [³H)-vasopressin combined with the membrane in the absence of the test compound. B¹: The amount of [³H]-vasopressin combined with the membrane in the presence of the excess amount of vasopressin (10⁻⁶ M).
The results are expressed as IC₅₀ values, which is the concentration of the test compound required to achieve the inhibitory effect in the rate of 50 %.
Take `O=C(Nc1ccc(C(=O)N2CCCC(N3CCN(Cc4ccccc4)CC3)c3ccccc32)cc1)c1ccccc1Cl` (stereo not shown) [compound 203]: the IC50 is 70 nM. Then `Cc1ccccc1C(=O)Nc1ccc(C(=O)N2CCCC(N(C)C)c3ccccc32)c(C)c1` (stereo not shown) [compound 218], with 22 nM.

In turn, `Cc1ccccc1C(=O)Nc1ccc(C(=O)N2CCCC(N(C)C)c3ccccc32)cc1F` (stereo not shown) [compound 232] showed an IC50 of 20 nM.

The compound `CC(=O)Nc1cccc(C(=O)Nc2ccc(C(=O)N3CCCC(N(C)C)c4ccccc43)cc2)c1` (stereo not shown) [compound 300] yielded an IC50 of 480 nM.

The compound `CN(C)C1CCCN(C(=O)c2ccc(NC(=O)Cc3ccccc3)cc2)c2ccccc21` (stereo not shown) [compound 305] showed an IC50 of 38 nM. Then `CC1CCN(C(=O)c2ccc(NC(=O)c3cc(Cl)cc(Cl)c3)cc2)c2ccccc21` (stereo not shown) [compound 55], with 91 nM; and `COc1cccc(C(=O)Nc2ccc(C(=O)N3CC(C)Cc4ccccc43)cc2)c1` (stereo not shown) [compound 47], with 200 nM; and `Cc1cccc(C(=O)Nc2ccc(C(=O)N3CC(N4CCCC4)Cc4ccccc43)cc2)c1C` (stereo not shown) [compound 93], with 520 nM. Then `COc1cccc(C(=O)Nc2ccc(C(=O)N3CCCCCc4ccccc43)cc2)c1` [compound 37], with 160 nM; and `CCN(C)C1CCCN(C(=O)c2ccc(NC(=O)c3ccccc3C)cc2)c2ccccc21` (stereo not shown) [compound 228], with 29 nM. `O=C(CN1CCCCC1)Nc1ccc(C(=O)N2CCCCc3ccccc32)cc1` [compound 103] showed a 50% inhibitory concentration (IC50) of 540 nM. Then `CN(C)C1CCCN(C(=O)c2ccc(NC(=O)c3ccccc3OCC(N)=O)cc2)c2ccccc21` (stereo not shown) [compound 239], with 170 nM; and `O=C(Nc1ccc(C(=O)N2CCCc3ccccc32)cc1)C1CCCCC1` [compound 14], with 230 nM. Take `CN(C)C1CCCN(C(=O)c2ccc(NC(=O)c3ccccc3Cl)cc2)c2ccccc21` (stereo not shown) [compound 180]: the IC50 was 34 nM. Then `Cc1cccc(C(=O)Nc2ccc(C(=O)N3CCN(C)c4ccccc43)cc2)c1C` [compound 52], with 320 nM.

As to `CNC(=O)NC1CCCN(C(=O)c2ccc(NC(=O)c3ccccc3C)cc2)c2ccccc21` (stereo not shown) [compound 283], the IC50 stood at 96 nM.

As for `CN(C)C1CCCN(C(=O)c2ccc(NC(=O)c3ccccc3C(C)(C)C)cc2Cl)c2ccccc21` (stereo not shown) [compound 175], the concentration for half-maximal inhibition (IC50) stood at 38 nM. Then `O=C(Nc1ccc(C(=O)N2CCCc3ccccc32)cc1)c1ccccc1C(F)(F)F` [compound 8], with 320 nM. `C=CCNC1CCCN(C(=O)c2ccc(NC(=O)c3ccccc3C)cc2Cl)c2ccccc21` (stereo not shown) [compound 201] gave an IC50 of 23 nM. Then `Cc1ccccc1C(=O)Nc1ccc(C(=O)N2CCCC(N(C)C)c3ccccc32)c(N(C)C)c1` (stereo not shown) [compound 197], with 990 nM; and `CCN(C)C1CCCN(C(=O)c2ccc(NC(=O)c3ccccc3Cl)cc2Cl)c2ccccc21` (stereo not shown) [compound 314], with 96 nM; and `CC(C)(C)CC(=O)Nc1ccc(C(=O)N2CCCc3ccccc32)cc1` [compound 11], with 1050 nM. Then `Cc1ccccc1C(=O)Nc1ccc(C(=O)N2CCCC(N(C)S(C)(=O)=O)c3ccccc32)cc1` (stereo not shown) [compound 258], with 200 nM; and `CC(=O)ON=C1CCCN(C(=O)c2ccc(NC(=O)c3ccccc3Cl)cc2)c2ccccc21` [compound 234], with 140 nM.

In turn, `Cc1ccccc1C(=O)Nc1ccc(C(=O)N2CCCC(CN(C)C)c3ccccc32)cc1` (stereo not shown) [compound 268] showed an IC50 of 18 nM. Then `COc1cccc(C(=O)Nc2ccc(C(=O)N3CCN(C)Cc4ccccc43)cc2)c1` [compound 83], with 730 nM; and `COc1cc(NC(=O)c2ccccc2C)ccc1C(=O)N1CCCC(N(C)C)c2ccccc21` (stereo not shown) [compound 183], with 260 nM; and `O=C(Nc1ccc(C(=O)N2CCCCCc3ccccc32)cc1)c1ccccc1` [compound 35], with 200 nM. Compound `COc1cc(C(=O)N2CCN(C)Cc3ccccc32)ccc1NC(=O)c1cc(Cl)cc(Cl)c1` [compound 92] showed an IC50 of 410 nM. Then `Cc1ccccc1C(=O)Nc1ccc(C(=O)N2CCCC(NN)c3ccccc32)cc1` (stereo not shown) [compound 282], with 380 nM. Then `O=C(Nc1ccccc1C(=O)N1CCCc2ccccc21)c1ccc2ccccc2c1` [compound 20], with 1400 nM; and `Cc1ccc(NCC(=O)Nc2ccc(C(=O)N3CCCCc4ccccc43)cc2)cc1` [compound 110], with 44 nM. With `CN1CCN(C(=O)c2ccc(NC(=O)C3CCCCC3)cc2)c2ccccc2C1` [compound 79], the 50% inhibitory concentration (IC50) worked out at 530 nM. Then `Cc1ccccc1C(=O)Nc1ccc(C(=O)N2CCCC(NC3CCCC3)c3ccccc32)c(Cl)c1` (stereo not shown) [compound 263], with 53 nM; and `Cc1cccc(C(=O)Nc2ccc(C(=O)N3CCN(C)Cc4ccccc43)cc2)c1C` [compound 81], with 150 nM; and `Cc1ccccc1C(=O)Nc1ccc(C(=O)N2CCCC(N(C)CC(O)CO)c3ccccc32)cc1` (stereo not shown) [compound 264], with 30 nM.

`Cc1ccccc1C(=O)Nc1ccc(C(=O)N2CCCC(N(C)CC#N)c3ccccc32)cc1` (stereo not shown) [compound 265] came in with an IC50 of 25 nM. `COc1ccc(NC(=O)c2ccc(C(=O)N3CCCc4ccccc43)cc2)cc1` [compound 21] gave a concentration for half-maximal inhibition (IC50) of 1000 nM. In turn, `CN(C)C1CCCN(C(=O)c2ccc(NC(=O)c3ccccc3Cl)cc2F)c2ccccc21` (stereo not shown) [compound 223] showed a 50% inhibitory concentration (IC50) of 22 nM. `Cc1cc(NC(=O)c2ccc(Cl)cc2Cl)ccc1C(=O)N1CCCC(N(C)C)c2ccccc21` (stereo not shown) [compound 220] displayed a half-maximal inhibitory concentration (IC50) of 26 nM.

`O=C(Nc1ccc(C(=O)N2CCCCCc3ccccc32)cc1)c1cc(Cl)cc(Cl)c1` [compound 39] gave an IC50 of 71 nM. Then `COc1cccc(NCC(=O)Nc2ccc(C(=O)N3CCCCc4ccccc43)cc2)c1` [compound 108], with 120 nM; and `O=C(Nc1ccc(C(=O)N2CCCc3ccccc32)cc1)C1CCCCCC1` [compound 15], with 130 nM; and `Cc1ccccc1C(=O)Nc1ccc(C(=O)N2CCCc3ccccc32)cc1` [compound 7], with 200 nM. Then `CNC1CCCCN(C(=O)c2ccc(NC(=O)c3ccccc3C)cc2)c2ccccc21` (stereo not shown) [compound 320], with 39 nM; and `Cc1ccccc1C(=O)Nc1ccc(C(=O)N2CCCC(N(C)C)c3ccccc32)c(F)c1` (stereo not shown) [compound 226], with 19 nM; and `Cc1ccccc1C(=O)Nc1ccc(C(=O)N2CCCC(NC(=O)CNC(=O)OC(C)(C)C)c3ccccc32)cc1` (stereo not shown) [compound 301], with 140 nM. For the compound `O=C(Nc1ccc(C(=O)N2CCCC(N3CCCCC3)c3ccccc32)cc1)c1ccccc1Cl` (stereo not shown) [compound 202], the IC50 amounted to 140 nM. Then `O=C(Nc1ccc(C(=O)N2CCCc3ccccc32)cc1)c1cc(Cl)cc(Cl)c1` [compound 10], with 82 nM; and `CNC1CCCN(C(=O)c2ccc(NC(=O)c3ccccc3C(F)(F)F)cc2Cl)c2ccccc21` (stereo not shown) [compound 198], with 40 nM. Then `CNC1CCCN(C(=O)c2ccc(NC(=O)c3ccccc3C)cc2)c2c(Cl)cccc21` (stereo not shown) [compound 318], with 60 nM. Then `CN(C)C1CCCN(C(=O)c2ccc(NC(=O)c3ccccc3Cl)c(OC(=O)c3ccccc3Cl)c2)c2ccccc21` (stereo not shown) [compound 189], with 87 nM; and `O=C(Nc1ccc(C(=O)N2CCCC(N3CCCC3)c3ccccc32)cc1)c1ccccc1Cl` (stereo not shown) [compound 204], with 110 nM. `Cc1ccccc1C(=O)Nc1ccc(C(=O)N2CCC(CN(C)C)c3ccccc32)cc1` (stereo not shown) [compound 145] displayed a half-inhibitory concentration (IC50) of 60 nM. Then `CN(C)C1CCCN(C(=O)c2ccc(NC(=O)c3cccc([N+](=O)[O-])c3)cc2)c2ccccc21` (stereo not shown) [compound 289], with 71 nM; and `O=C(Nc1ccc(C(=O)N2CC(CO)Cc3ccccc32)cc1)c1cc(Cl)cc(Cl)c1` (stereo not shown) [compound 96], with 39 nM; and `CNC1c2ccccc2N(C(=O)c2ccc(NC(=O)c3ccccc3Cl)cc2Cl)CCC1O` (stereo not shown) [compound 224], with 380 nM. Then `Cc1ccc(NCC(=O)Nc2ccc(C(=O)N3CCCCc4ccccc43)cc2)c(C)c1` [compound 113], with 280 nM; and `Cc1ccccc1C(=O)Nc1ccc(C(=O)N2CCCC(N(C)CC(=O)N(C)C)c3ccccc32)cc1` (stereo not shown) [compound 295], with 26 nM. Then `Cc1cccc(C(=O)Nc2ccc(C(=O)N3CC(C)Cc4ccccc43)cc2)c1C` (stereo not shown) [compound 48], with 21 nM; and `O=C(Nc1ccc(C(=O)N2CCCCCc3ccccc32)cc1)C1CCCCC1` [compound 34], with 49 nM; and `CN1CCN(C2CCCN(C(=O)c3ccc(NC(=O)c4ccccc4Cl)cc3)c3ccccc32)CC1` (stereo not shown) [compound 206], with 88 nM. As for `CN(C)C1CCCN(C(=O)c2ccc(NC(=O)CCc3ccccc3)cc2)c2ccccc21` (stereo not shown) [compound 306], the IC50 worked out at 77 nM. Then `CCN(CC(=O)Nc1ccc(C(=O)N2CCCC(NC)c3ccccc32)c(Cl)c1)c1ccccc1` (stereo not shown) [compound 221], with 24 nM; and `Cc1cccc(C(=O)Nc2ccc(C(=O)N3CCOCc4ccccc43)cc2)c1C` [compound 42], with 63 nM. Then `O=C(Nc1ccc(C(=O)N2CCCC(NC3CC3)c3ccccc32)c(Cl)c1)c1ccc(Cl)cc1Cl` (stereo not shown) [compound 186], with 30 nM. Then `Cc1ccccc1C(=O)Nc1ccc(C(=O)N2CCCC(OC(N)=O)c3ccccc32)cc1` (stereo not shown) [compound 191], with 9 nM.
